System: bovine liver (simulated tissue)
Assay: Bolus / chemical ablation test in sample bovine liver tissue
Excerpt: For example, a solid active agent (HAuCl4) may be added to water at room temperature, and mixed for approximately ten (10) minutes, then filtered and ready to use. The active agent (HAuCl4) solution may be stored for up to a year without stability issues. The hydrophilic nature of the solution facilitates the delivery and spread of the active agent (HAuCl4) throughout the entire target tissue/cavity, while avoiding formation of lumps in the solution or patches of tissue without the solution when delivered.
FIGS. 2A-C and FIGS. 3-5 illustrate exemplary ablative effects of the active agent (HAuCl4) 300 when applied to a sample tissue. FIG. 2A illustrates a liquid DI water solution of active agent (HAuCl4) 300, a syringe 400 and a sample bovine liver tissue 500. […] FIG. 2C depicts the ablated tissue 500.
Various tests were performed in sample tissue 500. For example, in some tests the active agent (HAuCl4) 300 (1 ml) was delivered into the tissue 500 having a constant time of exposure (e.g., 2 minutes at room temperature) but the bolus size (ablated volume) was measured under different active agent (HAuCl4) concentrations (FIG. 3). Data contained in FIG. 3 was measured three times and obtained the average value for the graph, as shown. As known in the art, bolus tests are common to understand diffusion and effectiveness of ablative technologies.
In another test, the active agent (HAuCl4) concentration was maintained constant at 0.5% in an injected 1 ml into the sample tissue but the bolus size was measured at different times (FIG. 4). Data reference in FIG. 4 was measured five times and obtained the average value for the graph, as shown. […] Additionally, the bolus size is time dependent but after 3 minutes, 1 ml of 0.5% HAuCl4 DI-water solution stopped the reaction because the solution is not strong enough to penetrate the tissue further. Therefore, the active agent (HAuCl4) chemical ablation is quantity and time dependent.
FIG. 5 illustrates sample tissue ablation profiles measured and characterized for a range of active agent (HAuCl4) concentration (0.10%, 0.25% and 1% of HAuCl4 within 2 minutes, and a variety of bolus sizes). Optimization was performed to select 0.5% of HAuCl4 in order to achieve desirable ablation profile (rage of 4-9 mm ablation depth of tissue). Additional optimization could be performed to achieve shallower profiles (if desired).

[Au+3].[Cl-].[Cl-].[Cl-].[Cl-].[H+] [HAuCl4, chloroauric acid]
penetration depths in the tissue from the surface of the tissue (0.5% HAuCl4 diluted in water, up to three (3) minutes of exposure): 4-9 mm | ablation depth of tissue (ablation profile) (0.5% of HAuCl4 selected by optimization): 4-9 mm | bolus size (ablated volume) versus concentration (1 ml injected, 2 minutes at room temperature, different concentrations (FIG. 3)): increases with the active agent (HAuCl4) concentration | time after which the reaction stopped (bolus size versus time) (1 ml of 0.5% HAuCl4 DI-water solution (FIG. 4)): 3 min

— patent US11890299B2, “Ablation agent and methods of use” (HOLOGIC, INC., priority 2019, dated 2024)
